From the RepoRT retention time repository

Test: Waters ACQUITY UPLC BEH C18, 100 × 2.1 mm, 1.7 µm, 40 °C, 0.3 to 0.4 mL/min, estimated dead time 0.63 min; A: water + 0.1% formic acid; B: methanol + 0.1% formic acid; gradient (min/%B) 0/0.5 0.1/0.5 10/80 10.1/99.5 12/99.5
Settings: stereoisomer not certain

Point of comparison: `COc1c(O)cc2c(c1O)C1OC(CO)C(O)C(O)C1OC2=O` (stereo not given), LC retention time 2.86 min. Against it:
- CC(C)=CCc1c(O)cc(O)c2c1OC(c1ccc(O)cc1)CC2=O (stereo not given) — 3.1-fold higher, 8.76 min
- CC(C)=CCc1c(O)ccc(-c2coc3cc(O)cc(O)c3c2=O)c1O — 2.6-fold higher, 7.57 min
- CC=CS(=O)CC(NC=C1OCC(O)C(O)C1O)C(=O)O (stereo not given) — 1.5-fold lower, 1.86 min
- O=C1CC(c2ccc(O)cc2)Oc2c1c(O)cc(O)c2C1OC(CO)C(O)C(O)C1O (stereo not given) — within 1.5-fold, 3.04 min
- COC(=O)C=Cc1ccccc1 — within 1.5-fold, 2.87 min
- CCC(C)C(NC(=O)C(N)Cc1ccccc1)C(=O)O (stereo not given) — within 1.5-fold, 3.79 min
- COc1cc(-c2cc(=O)c3c(O)cc(OC4OC(C(=O)O)C(O)C(O)C4O)cc3o2)cc(OC)c1O (stereo not given) — 1.6-fold higher, 4.54 min
- CCC1C2CCN3CCC4(C(=C2C(=O)OC)Nc2ccccc24)C13 (stereo not given) — 1.7-fold higher, 4.92 min
- CCC(C)C(NC(=O)C([NH3+])C(C)C)C(=O)[O-] (stereo not given) — within 1.5-fold, 2.88 min
- C1CCC(C23CC(CC4CCCNC42)C2CCCCN2C3)NC1 (stereo not given) — within 1.5-fold, 2.24 min
- O=c1cc(-c2ccc(O)c(O)c2)oc2cc(O)cc(O)c12 — 1.9-fold higher, 5.34 min
- CC1CCC2(NC1)OC1CC3C4CCC5CC(OC6OC(CO)C(OC7OC(CO)C(O)C(OC8OC(O)C(O)C(O)C8O)C7OCC(O)C(O)C(O)C(O)CO)C(O)C6O)CCC5(C)C4CCC3(C)C1C2C (stereo not given) — 1.5-fold higher, 4.32 min
- CSCC(NC(=O)CCC(NCC1(O)OCC(O)C(O)C1O)C(=O)O)C(=O)O (stereo not given) — within 1.5-fold, 2.12 min
- CC(C)=CCCC(C)(OC1OC(CO)C(O)C(O)C1O)C1CCC2(C)C1C(O)CC1C3(C)CCC(O)C(C)(C)C3C(OC3OC(CO)C(O)C(O)C3OC3OC(C)C(O)C(O)C3O)CC12C (stereo not given) — 1.7-fold higher, 4.79 min
- COc1ccc2cc1Oc1ccc(cc1)CC1=NCCc3cc(OC)c(cc31)Oc1c(OC)c(OC)c(O)c3c1C(C2)N(C)CC3 (stereo not given) — within 1.5-fold, 3.96 min
- O=c1cc(-c2ccc(O)cc2)oc2cc(O)cc(O)c12 — 2.1-fold higher, 5.89 min
- CC1OC(OCC2OC(Oc3c(-c4ccc(O)c(O)c4)oc4cc(O)cc(O)c4c3=O)C(OC3OCC(O)C(O)C3O)C(O)C2O)C(O)C(O)C1O (stereo not given) — within 1.5-fold, 3.65 min
- COc1ccccc1C=CC(=O)O — 2.1-fold higher, 6.12 min
- CC(C)=CCc1c(O)cc2c(c1O)C(=O)CC(c1ccccc1)O2 (stereo not given) — 2.7-fold higher, 7.58 min
- CCCCCCCCCCCCC(O)C(O)C(COC1OC(CO)C(O)C(O)C1O)NC(C)=O (stereo not given) — 1.6-fold higher, 4.55 min
- Cc1nccc2c1[nH]c1ccccc12 — within 1.5-fold, 3.7 min
- O=C(O)C1Cc2c([nH]c3ccccc23)CN1 (stereo not given) — within 1.5-fold, 3.35 min
- C=CCC(=NOS(=O)(=O)O)SC1OC(CO)C(O)C(O)C1O (stereo not given) — 1.6-fold lower, 1.77 min
- CN1C2CCC1CC(OC(=O)C(CO)c1ccccc1)C2 (stereo not given) — within 1.5-fold, 3.59 min
- CC(C)=CCCC(C)(OC1OC(COC2OC(CO)C(O)C2O)C(O)C(O)C1O)C1CCC2(C)C1C(O)CC1C3(C)CCC(OC4OC(CO)C(O)C(O)C4OC4OC(CO)C(O)C(O)C4O)C(C)(C)C3CCC12C (stereo not given) — 2.1-fold higher, 6.01 min
- O=c1cc(-c2ccccc2)oc2ccccc12 — 2.7-fold higher, 7.75 min
- O=C(C=Cc1ccc(O)c(O)c1)OC(Cc1ccc(O)c(O)c1)C(=O)O (stereo not given) — 1.6-fold higher, 4.6 min
- CC(C)C(O)(CC(=O)O)C(=O)O (stereo not given) — within 1.5-fold, 3.25 min
- COc1ccc2c(c1)OC(O)C(=O)N2O (stereo not given) — within 1.5-fold, 2.59 min
- COc1cc(-c2[o+]c3cc(O)cc(OC4OC(CO)C(O)C(O)C4O)c3cc2OC2OC(COC3OC(C)C(OC(=O)C=Cc4ccc(O)cc4)C(O)C3O)C(O)C(O)C2O)cc(O)c1O (stereo not given) — within 1.5-fold, 3.76 min
- CCN1CC2(COC)C(OC(C)=O)CC(OC)C34C5CC6(O)C(OC)C(O)C(OC(C)=O)(C5C6OC(=O)c5ccccc5)C(C(OC)C23)C14 (stereo not given) — 2.2-fold higher, 6.17 min
- CC(=O)OC1CC(C)CNC12OC1CC3C4CCC5CC(OC6OC(CO)C(OC7OC(CO)C(O)C(OC8OCC(O)C(O)C8O)C7OC7OC(CO)C(O)C(O)C7O)C(O)C6O)CCC5(C)C4CCC3(C)C1C2C (stereo not given) — 1.7-fold higher, 4.78 min
- O=c1c(O)c(-c2ccc(O)c(O)c2)oc2cc(OC3OC(CO)C(O)C(O)C3O)c(O)c(O)c12 (stereo not given) — within 1.5-fold, 3.72 min
- NC(Cc1ccccc1)C(=O)O (stereo not given) — within 1.5-fold, 2.3 min
- CN1C2CCC1CC(OC(=O)C(O)c1ccccc1)C2 (stereo not given) — within 1.5-fold, 3.15 min
- CC=C1CC(C)C(O)(CO)C(=O)OCC2=CCN3CCC(OC1=O)C23 (stereo not given) — within 1.5-fold, 3.23 min
- COc1cc(-c2cc(=O)c3c(O)cc(OC4OC(C(=O)O)C(O)C(O)C4OC4OC(C(=O)O)C(O)C(O)C4O)cc3o2)ccc1O (stereo not given) — within 1.5-fold, 4.05 min
- C=C(C)C1CNC(C(=O)O)C1CC(=O)O (stereo not given) — within 1.5-fold, 2.44 min
- c1ccc2c3ccn4cc5c(cc4c-3nc2c1)CCCC5 — 1.8-fold higher, 5.23 min
- CC(=O)OC1C(C)CNC2C(C)C3C(CC4C5CCC6CC(OC7OC(CO)C(OC8OC(CO)C(O)C(OC9OCC(O)C(O)C9O)C8OC8OC(CO)C(O)C(O)C8O)C(O)C7O)CCC6(C)C5CCC43C)OC21O (stereo not given) — 1.5-fold higher, 4.29 min
- CCC(C)C(NC(=O)C(N)C(C)C)C(=O)O (stereo not given) — within 1.5-fold, 2.88 min
- CC(=O)N1CCCC1C(=O)O (stereo not given) — within 1.5-fold, 2.46 min
- O=c1cc(-c2ccc(O)cc2)oc2cc(OC3OC(CO)C(O)C(O)C3O)c(O)c(O)c12 (stereo not given) — within 1.5-fold, 4.13 min
- CC(CCC1(O)OC2CC3C4CC=C5CC(O)CCC5(C)C4CCC3(C)C2C1C)COC1OC(CO)C(O)C(O)C1O (stereo not given) — 2.3-fold higher, 6.58 min
- COc1ccc(C=Cc2cc(OC)cc(OC)c2)cc1 — 3.4-fold higher, 9.6 min
- CCC(C)C(N)C(=O)O (stereo not given) — within 1.5-fold, 1.94 min
- CC1OC(OC2C(OC3C(OC4CCC5(C)C(CCC6(C)C5CC=C5C7CC(C)(C)CC(=O)C7(C)CCC56C)C4(C)CO)OC(C(=O)O)C(O)C3O)OC(CO)C(O)C2O)C(O)C(O)C1O (stereo not given) — 2.7-fold higher, 7.62 min
- COc1ccc(C2CC(=O)c3c(O)cc(OC4OC(COC5OC(C)C(O)C(O)C5O)C(O)C(O)C4O)cc3O2)cc1 (stereo not given) — 1.9-fold higher, 5.33 min
- CC1OC(OCC2OC(Oc3c(-c4ccc(O)cc4)oc4cc(O)cc(O)c4c3=O)C(O)C(O)C2O)C(O)C(O)C1O (stereo not given) — within 1.5-fold, 4 min
- CC(C)CC(NC(=O)C(N)CO)C(=O)O (stereo not given) — within 1.5-fold, 2.38 min
- CC1CCC2(C(=O)OC3OC(COC4OC(CO)C(OC5OC(C)C(O)C(O)C5O)C(O)C4O)C(O)C(O)C3O)CCC3(C)C(=CCC4C5(C)CC(O)C(O)C(C)(CO)C5C(O)CC43C)C2C1C (stereo not given) — 1.7-fold higher, 4.88 min
- COc1ccc2c(c1OC)C(=O)OC2C1c2cc3c(cc2CCN1C)OCO3 (stereo not given) — within 1.5-fold, 4.21 min
- C=CC12CN(C)C3C4COC(CC41)C1(C(=O)N(OC)c4ccccc41)C32 (stereo not given) — within 1.5-fold, 4.05 min
- CC(C)CC(NC(=O)CCC(N)C(=O)O)C(=O)O (stereo not given) — within 1.5-fold, 2.54 min
- CCN1CC2(C)CCC(O)C34C5CC6C(OC)CC(O)(C(CC23)C14)C5C6O (stereo not given) — within 1.5-fold, 2.89 min
- OCC=Cc1ccc(O)cc1 — within 1.5-fold, 3.76 min
- CCCCCCCC(O)SCC(NC(=O)CCC(N)C(=O)O)C(=O)NCC(=O)O (stereo not given) — 1.6-fold higher, 4.58 min
- CCCCCC(O)CC(=O)CCc1ccc(O)c(OC)c1 (stereo not given) — 2.6-fold higher, 7.45 min
- CC1CCC2(C(=O)O)CCC3(C)C(=CCC4C5(C)CC(O)C(O)C(C)(C)C5CCC43C)C2C1C (stereo not given) — 3.5-fold higher, 9.89 min
- O=C(C=Cc1ccc(O)cc1)OCC1OC(OC2C(c3c(O)cc4oc(-c5ccc(O)c(O)c5)cc(=O)c4c3O)OC(CO)C(O)C2O)C(O)C(O)C1O (stereo not given) — within 1.5-fold, 3.81 min
- COc1ccc(-c2coc3cc(OC4OC(CO)C(O)C(O)C4O)c(OC)cc3c2=O)cc1 (stereo not given) — 1.8-fold higher, 5.05 min
- COC(=O)C1C(O)CCC2CN3CCc4c([nH]c5ccccc45)C3CC21 (stereo not given) — 1.5-fold higher, 4.35 min
- NC(Cc1ccc(O)cc1)C(=O)O (stereo not given) — 1.6-fold lower, 1.79 min
- CC1OC(OC2C(Oc3cc(O)c4c(c3)OC(c3ccc(O)cc3)CC4=O)OC(CO)C(O)C2O)C(O)C(O)C1O (stereo not given) — 1.5-fold higher, 4.38 min
- O=c1c(OC2OC(CO)C(O)C(O)C2O)c(-c2ccc(O)cc2)oc2cc(O)cc(O)c12 (stereo not given) — 1.5-fold higher, 4.37 min
- NC(CCC(=O)NC(CS)C(=O)NCC(=O)O)C(=O)O (stereo not given) — 1.9-fold lower, 1.52 min
- C=CC(O)CC(=NOS(=O)(=O)O)SC1OC(CO)C(O)C(O)C1O (stereo not given) — 1.6-fold lower, 1.77 min
- O=c1ccc2ccc(O)c(O)c2o1 — within 1.5-fold, 3.65 min
- CC(C)CC(N)C(=O)NC(Cc1ccccc1)C(=O)O (stereo not given) — within 1.5-fold, 3.64 min
- Nc1[nH]c(=O)[nH]c(=O)c1OC1OC(CO)C(OC2OC(CO)C(O)C(O)C2O)C(O)C1O (stereo not given) — within 1.5-fold, 2 min
- CCC(C)C(NCC1(O)OC(CO)C(O)C1O)C(=O)O (stereo not given) — within 1.5-fold, 1.98 min
- COc1cc(C=CC(=O)OCC2OC(OC3C(c4c(O)cc5oc(-c6ccc(O)cc6)cc(=O)c5c4O)OC(CO)C(O)C3O)C(O)C(O)C2O)ccc1O (stereo not given) — within 1.5-fold, 4.21 min
- O=C1CC(c2ccc(O)cc2)Oc2cc(OC3OC(CO)C(O)C(O)C3O)cc(O)c21 (stereo not given) — 1.6-fold higher, 4.52 min
- CC1CCC2(NC1)OC1CC3C4CC=C5CC(OC6OC(CO)C(O)C(OC7OC(CO)C(O)C(O)C7O)C6OC6OC(C)C(O)C(O)C6O)CCC5(C)C4CCC3(C)C1C2C (stereo not given) — 1.6-fold higher, 4.62 min
- COc1cc2c(cc1O)CC1c3c(cc(O)c(OC)c3-2)CCN1C (stereo not given) — within 1.5-fold, 3.35 min
- COCC=C1CN2C3CC45C(=Nc6c(OC)cc(OC)c(OC)c64)OCC3C1CC25 (stereo not given) — within 1.5-fold, 3.82 min
- O=C(O)C1OC(Oc2cc3oc(-c4ccccc4)cc(=O)c3c(O)c2O)C(O)C(O)C1O (stereo not given) — 1.6-fold higher, 4.49 min
- COc1cc(C=CC(=O)NC=Cc2ccc(O)cc2)ccc1O — 1.5-fold higher, 4.3 min
- CCCCCCCCCCCCCCCC(=O)OCC(O)COP(=O)([O-])OCC[N+](C)(C)C (stereo not given) — 3.5-fold higher, 9.91 min
- CC1CCC2C(C)C3C(CC4C5CC=C6CC(OC7OC(CO)C(O)C(OC8OC(CO)C(O)C(O)C8O)C7O)CCC6(C)C5CCC43C)N2C1 (stereo not given) — 1.6-fold higher, 4.65 min
- CC1C(=O)OC2C(O)C34C5OC(=O)C3(OC3OC(=O)C(O)C34C(C(C)(C)C)C5O)C12O (stereo not given) — 1.5-fold higher, 4.33 min
- COc1c2c(cc3c1OCO3)CCN(C)C2 — within 1.5-fold, 3.33 min
- CC(C)=CCc1c(O)ccc2c1OC(c1ccc(O)cc1)CC2=O (stereo not given) — 3.1-fold higher, 8.93 min
- OCC1OC(Oc2cc3c(O)cc(O)cc3[o+]c2-c2cc(O)c(O)c(O)c2)C(O)C(O)C1O (stereo not given) — within 1.5-fold, 2.61 min
